In patent publication US9868772B2 (INDIANA UNIVERSITY RESEARCH AND TECHNOLOGY CORPORATION, priority 2012, dated 2018):
Numbered stars: 1 amine (or outer) side, 2 acyl side, 3 side chain; on linkers, the order of the positions; unused ones are H or OH. Square brackets hold non-standard residues; d marks the D form. Side chains are listed from the residue outwards. Peptide text beside a SMILES is read from it. * marks the point of attachment. γGlu = O=C(O)[C@H](CCC(=O)[*:2])N[*:1]; Palmitoyl = CCCCCCCCCCCCCCCC(=O)*; Aib = CC(C)(N)C(=O)O

Columns and labels:
Assay in all cases: cAMP induction, firefly luciferase reporter assay in HEK293 cells co-transfected with receptor
Assay type in all cases: cell-based
[1] = target: T1, glucagon receptor (Homo sapiens, UniProt P47871)
T1 construct: expressed in transfected cells; host or cells: HEK293
T1 sequence (P47871 26-477): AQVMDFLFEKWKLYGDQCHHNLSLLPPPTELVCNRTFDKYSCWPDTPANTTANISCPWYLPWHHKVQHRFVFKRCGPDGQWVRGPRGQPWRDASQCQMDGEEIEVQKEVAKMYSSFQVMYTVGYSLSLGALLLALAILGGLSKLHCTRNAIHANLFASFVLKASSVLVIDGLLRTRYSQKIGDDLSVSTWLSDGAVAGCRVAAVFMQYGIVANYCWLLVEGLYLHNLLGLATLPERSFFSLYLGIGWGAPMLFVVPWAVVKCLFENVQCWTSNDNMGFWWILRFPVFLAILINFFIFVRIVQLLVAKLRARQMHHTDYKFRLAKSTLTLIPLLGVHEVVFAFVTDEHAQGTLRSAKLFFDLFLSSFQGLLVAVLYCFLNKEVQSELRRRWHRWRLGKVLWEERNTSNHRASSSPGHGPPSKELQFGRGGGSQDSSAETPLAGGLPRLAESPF
Description: (§1) The ability of glucagon analogs to induce cAMP was measured in a firefly luciferase-based reporter assay. […] At the end of the incubation 100 microliters of LucLite luminescence substrate reagent (Perkin-Elmer, Wellesley, Mass.) were added to each well. […] Effective 50% concentrations were calculated by using Origin software (OriginLab, Northampton, Mass.

[2] = target: T2, GIP receptor (Homo sapiens, UniProt P48546)
T2 construct: expressed in transfected cells; host or cells: HEK293
T2 sequence (P48546 22-466): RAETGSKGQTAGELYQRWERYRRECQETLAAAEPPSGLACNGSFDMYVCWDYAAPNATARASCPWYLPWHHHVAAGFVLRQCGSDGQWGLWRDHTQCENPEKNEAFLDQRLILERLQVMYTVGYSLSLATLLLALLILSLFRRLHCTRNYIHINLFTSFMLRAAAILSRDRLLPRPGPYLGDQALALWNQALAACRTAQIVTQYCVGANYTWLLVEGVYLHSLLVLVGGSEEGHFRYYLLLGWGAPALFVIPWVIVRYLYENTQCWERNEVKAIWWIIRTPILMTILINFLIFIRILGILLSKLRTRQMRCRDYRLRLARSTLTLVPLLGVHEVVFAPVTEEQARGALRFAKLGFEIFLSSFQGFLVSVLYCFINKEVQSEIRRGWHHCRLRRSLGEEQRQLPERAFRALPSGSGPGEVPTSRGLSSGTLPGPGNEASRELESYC
Description: as §1

[3] = target: T3, GLP-1 receptor (Homo sapiens, UniProt P43220)
T3 construct: expressed in transfected cells; host or cells: HEK293
T3 sequence (P43220 24-463): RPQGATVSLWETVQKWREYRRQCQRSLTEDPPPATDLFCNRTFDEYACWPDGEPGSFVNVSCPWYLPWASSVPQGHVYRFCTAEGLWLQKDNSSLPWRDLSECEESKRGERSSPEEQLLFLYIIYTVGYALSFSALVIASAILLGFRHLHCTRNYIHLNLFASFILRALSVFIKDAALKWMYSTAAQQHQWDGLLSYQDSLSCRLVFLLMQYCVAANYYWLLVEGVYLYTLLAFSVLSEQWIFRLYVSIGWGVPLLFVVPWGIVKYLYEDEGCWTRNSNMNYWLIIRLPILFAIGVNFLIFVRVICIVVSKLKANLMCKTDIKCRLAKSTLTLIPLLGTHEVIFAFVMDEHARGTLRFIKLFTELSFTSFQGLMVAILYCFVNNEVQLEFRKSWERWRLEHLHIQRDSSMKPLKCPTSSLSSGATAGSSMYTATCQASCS
Description: as §1

[4] = Table 2, analogs of SEQ ID NO: 10
[5] = Table 3, analogs of SEQ ID NO: 12
[6] = Table 1, analogs of SEQ ID NO: 37

SMILES | EC50 [1, 4] [pM] | EC50 [2, 4] [pM] | EC50 [3, 4] [pM] | EC50 [1, 6] [pM] | EC50 [2, 6] [pM] | EC50 [3, 6] [pM] | also measured
CCCCCCCCCCCCCCCC(=O)N[C@@H](CCC(=O)NCCCC[C@H](NC(=O)[C@H](CC(=O)O)NC(=O)[C@H](CO)NC(=O)[C@@H](NC(=O)[C@H](Cc1ccccc1)NC(=O)[C@@H](NC(=O)CNC(=O)[C@H](CCC(=O)O)NC(=O)[C@H](C)NC(=O)[C@@H](Cc1c[nH]cn1)NC(C)=O)[C@@H](C)O)[C@@H](C)O)C(=O)N[C@@H](CO)C(=O)N[C@@H](CCCCN)C(=O)N[C@@H](Cc1ccc(O)cc1)C(=O)N[C@@H](CC(C)C)C(=O)N[C@@H](CC(=O)O)C(=O)N[C@@H](CCC(=O)O)C(=O)N[C@@H](CCCNC(=N)N)C(=O)N[C@@H](C)C(=O)N[C@@H](C)C(=O)N[C@@H](CCC(N)=O)C(=O)N[C@@H](CC(=O)O)C(=O)N[C@@H](Cc1ccccc1)C(=O)N[C@H](C(=O)N[C@@H](CCC(N)=O)C(=O)N[C@@H](Cc1c[nH]c2ccccc12)C(=O)N[C@@H](CC(C)C)C(=O)N[C@@H](CC(C)C)C(=O)N[C@@H](CCC(=O)O)C(=O)NCC(=O)NCC(=O)N1CCC[C@H]1C(=O)N[C@@H](CO)C(=O)N[C@@H](CO)C(=O)NCC(=O)N[C@@H](C)C(=O)N1CCC[C@H]1C(=O)N1CCC[C@H]1C(=O)N1CCC[C@H]1C(=O)N[C@@H](CO)C(N)=O)C(C)C)C(=O)O [compound 148] | 178 | 7 | 2 | – | – | – | –
CCCCCCCCCCCCCCCC(=O)N[C@@H](CCC(=O)NCCCC[C@H](NC(=O)[C@H](CC(=O)O)NC(=O)[C@H](CO)NC(=O)[C@@H](NC(=O)[C@H](Cc1ccccc1)NC(=O)[C@@H](NC(=O)CNC(=O)[C@H](CCC(N)=O)NC(=O)[C@H](C)NC(=O)[C@@H](Cc1ccc(O)cc1)NC(C)=O)[C@@H](C)O)[C@@H](C)O)C(=O)N[C@@H](CO)C(=O)N[C@@H](CCCCN)C(=O)N[C@@H](Cc1ccc(O)cc1)C(=O)N[C@@H](CC(C)C)C(=O)N[C@@H](CC(=O)O)C(=O)N[C@@H](CCC(=O)O)C(=O)N[C@@H](CCCNC(=N)N)C(=O)N[C@@H](C)C(=O)N[C@@H](C)C(=O)N[C@@H](CCC(N)=O)C(=O)N[C@@H](CC(=O)O)C(=O)N[C@@H](Cc1ccccc1)C(=O)N[C@H](C(=O)N[C@@H](CCC(N)=O)C(=O)N[C@@H](Cc1c[nH]c2ccccc12)C(=O)N[C@@H](CC(C)C)C(=O)N[C@@H](CC(C)C)C(=O)N[C@@H](CCC(=O)O)C(=O)N[C@@H](C)C(=O)NCC(=O)N1CCC[C@H]1C(=O)N[C@@H](CO)C(=O)N[C@@H](CO)C(=O)NCC(=O)N[C@@H](C)C(=O)N1CCC[C@H]1C(=O)N1CCC[C@H]1C(=O)N1CCC[C@H]1C(=O)N[C@@H](CO)C(N)=O)C(C)C)C(=O)O [compound 146] (Ac-[dY]AQGTFTSDK([γGlu-Palmitoyl])SKYLDERAAQDFVQWLLEAGPSSGAPPPS-NH2) | – | – | – | – | – | – | EC50 [1, 5]: 9 pM; EC50 [2, 5]: 6 pM; EC50 [3, 5]: 7 pM
CCCCCCCCCCCCCCCC(=O)N[C@@H](CCC(=O)NCCCC[C@H](NC(=O)[C@H](CC(=O)O)NC(=O)[C@H](CO)NC(=O)[C@@H](NC(=O)[C@H](Cc1ccccc1)NC(=O)[C@@H](NC(=O)CNC(=O)[C@H](CCC(=O)O)NC(=O)[C@H](C)NC(=O)CCc1ccc(O)cc1)[C@@H](C)O)[C@@H](C)O)C(=O)N[C@@H](CO)C(=O)N[C@@H](CCCCN)C(=O)N[C@@H](Cc1ccc(O)cc1)C(=O)N[C@@H](CC(C)C)C(=O)N[C@@H](CC(=O)O)C(=O)N[C@@H](CCC(=O)O)C(=O)N[C@@H](CCCNC(=N)N)C(=O)N[C@@H](C)C(=O)N[C@@H](C)C(=O)N[C@@H](CCC(N)=O)C(=O)N[C@@H](CC(=O)O)C(=O)N[C@@H](Cc1ccccc1)C(=O)N[C@H](C(=O)N[C@@H](CCC(N)=O)C(=O)N[C@@H](Cc1c[nH]c2ccccc12)C(=O)N[C@@H](CC(C)C)C(=O)N[C@@H](CC(C)C)C(=O)N[C@@H](CCC(=O)O)C(=O)NCC(=O)NCC(=O)N1CCC[C@H]1C(=O)N[C@@H](CO)C(=O)N[C@@H](CO)C(=O)NCC(=O)N[C@@H](C)C(=O)N1CCC[C@H]1C(=O)N1CCC[C@H]1C(=O)N1CCC[C@H]1C(=O)N[C@@H](CO)C(N)=O)C(C)C)C(=O)O [compound 145] | 3730 | 3 | 3 | – | – | – | –
CCCCCCCCCCCCCCCC(=O)N[C@@H](CCC(=O)NCCCC[C@H](NC(=O)[C@H](CC(=O)O)NC(=O)[C@H](CO)NC(=O)[C@@H](NC(=O)[C@H](Cc1ccccc1)NC(=O)[C@@H](NC(=O)CNC(=O)[C@H](CCC(N)=O)NC(=O)[C@H](C)NC(=O)[C@H](Cc1cccs1)NC(C)=O)[C@@H](C)O)[C@@H](C)O)C(=O)N[C@@H](CO)C(=O)N[C@@H](CCCCN)C(=O)N[C@@H](Cc1ccc(O)cc1)C(=O)N[C@@H](CC(C)C)C(=O)N[C@@H](CC(=O)O)C(=O)N[C@@H](CCC(=O)O)C(=O)N[C@@H](CCCNC(=N)N)C(=O)N[C@@H](C)C(=O)N[C@@H](C)C(=O)N[C@@H](CCC(N)=O)C(=O)N[C@@H](CC(=O)O)C(=O)N[C@@H](Cc1ccccc1)C(=O)N[C@H](C(=O)N[C@@H](CCC(N)=O)C(=O)N[C@@H](Cc1c[nH]c2ccccc12)C(=O)N[C@@H](CC(C)C)C(=O)N[C@@H](CC(C)C)C(=O)N[C@@H](CCC(=O)O)C(=O)NCC(=O)NCC(=O)N1CCC[C@H]1C(=O)N[C@@H](CO)C(=O)N[C@@H](CO)C(=O)NCC(=O)N[C@@H](C)C(=O)N1CCC[C@H]1C(=O)N1CCC[C@H]1C(=O)N1CCC[C@H]1C(=O)N[C@@H](CO)C(N)=O)C(C)C)C(=O)O [compound 21] | – | – | – | 6 | 40 | 26 | –
CCCCCCCCCCCCCCCC(=O)N[C@@H](CCC(=O)NCCCC[C@H](NC(=O)[C@H](CC(=O)O)NC(=O)[C@H](CO)NC(=O)[C@@H](NC(=O)[C@H](Cc1ccccc1)NC(=O)[C@@H](NC(=O)CNC(=O)[C@H](CCC(N)=O)NC(=O)C(C)(C)NC(=O)[C@@H](N)Cc1c[nH]cn1)[C@@H](C)O)[C@@H](C)O)C(=O)N[C@@H](CO)C(=O)N[C@@H](CCCCN)C(=O)N[C@@H](Cc1ccc(O)cc1)C(=O)N[C@@H](CC(C)C)C(=O)N[C@@H](CC(=O)O)C(=O)N[C@@H](CCC(=O)O)C(=O)N[C@@H](CCCNC(=N)N)C(=O)N[C@@H](C)C(=O)N[C@@H](C)C(=O)N[C@@H](CCC(N)=O)C(=O)N[C@@H](CC(=O)O)C(=O)N[C@@H](Cc1ccccc1)C(=O)N[C@H](C(=O)N[C@@H](CCC(N)=O)C(=O)N[C@@H](Cc1c[nH]c2ccccc12)C(=O)N[C@@H](CC(C)C)C(=O)N[C@@H](CC(C)C)C(=O)N[C@@H](CCC(=O)O)C(=O)NCC(=O)NCC(=O)N1CCC[C@H]1C(=O)N[C@@H](CO)C(=O)N[C@@H](CO)C(=O)NCC(=O)N[C@@H](C)C(=O)N1CCC[C@H]1C(=O)N1CCC[C@H]1C(=O)N1CCC[C@H]1C(=O)N[C@@H](CO)C(N)=O)C(C)C)C(=O)O [compound 37] (H-H[Aib]QGTFTSDK([γGlu-Palmitoyl])SKYLDERAAQDFVQWLLEGGPSSGAPPPS-NH2; N-terminus assumed) | – | – | – | 9 | 3 | 6 | –
CCCCCCCCCCCCCCCC(=O)N[C@@H](CCC(=O)NCCCC[C@H](NC(=O)[C@H](CC(=O)O)NC(=O)[C@H](CO)NC(=O)[C@@H](NC(=O)[C@H](Cc1ccccc1)NC(=O)[C@@H](NC(=O)CNC(=O)[C@H](CCC(N)=O)NC(=O)CNC(=O)[C@H](N)Cc1c[nH]cn1)[C@@H](C)O)[C@@H](C)O)C(=O)N[C@@H](CO)C(=O)N[C@@H](CCCCN)C(=O)N[C@@H](Cc1ccc(O)cc1)C(=O)N[C@@H](CC(C)C)C(=O)N[C@@H](CC(=O)O)C(=O)N[C@@H](CCC(=O)O)C(=O)N[C@@H](CCCNC(=N)N)C(=O)N[C@@H](C)C(=O)N[C@@H](C)C(=O)N[C@@H](CCC(N)=O)C(=O)N[C@@H](CC(=O)O)C(=O)N[C@@H](Cc1ccccc1)C(=O)N[C@H](C(=O)N[C@@H](CCC(N)=O)C(=O)N[C@@H](Cc1c[nH]c2ccccc12)C(=O)N[C@@H](CC(C)C)C(=O)N[C@@H](CC(C)C)C(=O)N[C@@H](CCC(=O)O)C(=O)NCC(=O)NCC(=O)N1CCC[C@H]1C(=O)N[C@@H](CO)C(=O)N[C@@H](CO)C(=O)NCC(=O)N[C@@H](C)C(=O)N1CCC[C@H]1C(=O)N1CCC[C@H]1C(=O)N1CCC[C@H]1C(=O)N[C@@H](CO)C(N)=O)C(C)C)C(=O)O [compound 23] (H-[dH]GQGTFTSDK([γGlu-Palmitoyl])SKYLDERAAQDFVQWLLEGGPSSGAPPPS-NH2; N-terminus assumed) | – | – | – | 15 | 43 | 3 | –
